The values that follow come from patent US10526323B2, “Indazole and azaindazole substituted compounds as mGluR4 allosteric potentiators, compositions, and methods of treating neurological dysfunction” (Vanderbilt University, priority 2015, dated 2020).

pEC50: −log10 of the molar value. A value given as a limit tells only on which side of the number the result lay.

The target in the test is mGluR4 (UniProt Q14833). Put plainly: mGluR4 potentiation assay: increase in response to an EC20 concentration of agonist (species not given). The class given is cell-based. As to conditions: EC50 for potentiation of mGluR4; table does not state human or rat. The gist of the method:
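Human mGluR4 was expressed in CHO cells read with a Ca2+-sensitive dye; rat mGluR4 was co-expressed with GIRK in […] read by thallium flux. Potentiation is the rise over agonist-alone response, with EC50 and maximal potentiation from non-linear fits.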
As usually defined, the pEC50 is −log10 of the EC50, conventionally taken in molar units. For the compound `Cc1cc(Cn2ncc3cc(Nc4n[nH]c5cccnc45)ccc32)no1` [Example 103, N-(1-((5-methylisoxazol-3-yl)methyl)-1H-indazol-5-yl)-1H-pyrazolo[4,3-b]pyridin-3-amine], the negative logarithm of the EC50 (pEC50) is 6.90.
As for `Cc1cc(Cn2ncc3cc(Nc4n[nH]c5nccnc45)ccc32)no1` [Example 104, N-(1-((5-methylisoxazol-3-yl)methyl)-1H-indazol-5-yl)-1H-pyrazolo[3,4-b]pyrazin-3-amine], the figure is 7.08; as for `CCC(C)n1nc2ccc(Nc3n[nH]c4cccnc34)cc2c1C` (stereo not shown) [Example 105, N-(2-(sec-butyl)-3-methyl-2H-indazol-5-yl)-1H-pyrazolo[4,3-b]pyridin-3-amine], < 5.00.
Then `Cc1nn(CC2CCCC2)c2ccc(Nc3n[nH]c4cccnc34)cc12` [Example 106, N-(1-(cyclopentylmethyl)-3-methyl-1H-indazol-5-yl)-1H-pyrazolo[4,3-b]pyridin-3-amine], with 6.84.
As for `Cc1nn(C2CCC2)c2ccc(Nc3n[nH]c4cccnc34)cc12` [Example 107, N-(1-cyclobutyl-3-methyl-1H-indazol-5-yl)-1H-pyrazolo[4,3-b]pyridin-3-amine], the figure is 6.43; as for `Cc1nn(C)c2ccc(Nc3n[nH]c4cccnc34)cc12` [Example 108, N-(1,3-dimethyl-1H-indazol-5-yl)-1H-pyrazolo[4,3-b]pyridin-3-amine], 6.46.
Take `C=CCn1nc(C)c2cc(Nc3n[nH]c4cccnc34)ccc21` [Example 109, N-(1-allyl-3-methyl-1H-indazol-5-yl)-1H-pyrazolo[4,3-b]pyridin-3-amine]: the pEC50 was 7.23.
Then `Cn1nc(C(F)(F)F)c2cc(Nc3n[nH]c4cccnc34)ccc21` [Example 110, N-(1-methyl-3-(trifluoromethyl)-1H-indazol-5-yl)-1H-pyrazolo[4,3-b]pyridin-3-amine], with 6.92; and `Cc1nn(CC2CC2)c2ccc(Nc3n[nH]c4cccnc34)cc12` [Example 111, N-(1-(cyclopropylmethyl)-3-methyl-1H-indazol-5-yl)-1H-pyrazolo[4,3-b]pyridin-3-amine], with 7.44; and `Cc1nn(CC(C)C)c2ccc(Nc3n[nH]c4cccnc34)cc12` [Example 112, N-(1-isobutyl-3-methyl-1H-indazol-5-yl)-1H-pyrazolo[4,3-b]pyridin-3-amine], with 7.02.
As for `CCCn1nc(C)c2cc(Nc3n[nH]c4cccnc34)ccc21` [Example 113, N-(3-methyl-1-propyl-1H-indazol-5-yl)-1H-pyrazolo[4,3-b]pyridin-3-amine], the figure is 6.91; as for `CCCCn1nc(C)c2cc(Nc3n[nH]c4cccnc34)ccc21` [Example 114, N-(1-butyl-3-methyl-1H-indazol-5-yl)-1H-pyrazolo[4,3-b]pyridin-3-amine], 7.35.
Then `Cc1nn(CC2CC(c3ncccc3F)=NO2)c2ccc(Nc3n[nH]c4cccnc34)cc12` (stereo not shown) [Example 115, N-(1-((3-(3-fluoropyridin-2-yl)-4,5-dihydroisoxazol-5-yl)methyl)-3-methyl-1H-indazol-5-yl)-1H-pyrazolo[4,3-b]pyridin-3-amine], with 6.87; and `Cc1nn(CC(F)(F)F)c2ccc(Nc3n[nH]c4cccnc34)cc12` [Example 116, N-(3-methyl-1-(2,2,2-trifluoroethyl)-1H-indazol-5-yl)-1H-pyrazolo[4,3-b]pyridin-3-amine], with 7.02; and `Cc1nn(C2CCOCC2)c2ccc(Nc3n[nH]c4cccnc34)cc12` [Example 117, N-(3-methyl-1-(tetrahydro-2H-pyran-4-yl)-1H-indazol-5-yl)-1H-pyrazolo[4,3-b]pyridin-3-amine], with 5.84.
In the case of `COC(=O)Cn1nc(C)c2cc(Nc3n[nH]c4cccnc34)ccc21` [Example 118, methyl 2-(5-((1H-pyrazolo[4,3-b]pyridin-3-yl)amino)-3-methyl-1H-indazol-1-yl)acetate], the negative-log EC50 (pEC50) is 6.06.
